From PubChem BioAssay (NCI)
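A five-concentration, 48-hour dose response in 96-well plates underlies each endpoint, interpolated linearly between surrounding concentrations. GI50: concentration for 50% inhibition of growth. TGI: total growth inhibition.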

Experiments:
Experiment in all cases: NCI-60 cell line screen, 48 h
HL-60(TB) leukemia = system: HL-60(TB) leukemia
ACHN renal = system: ACHN renal
IGROV1 ovarian = system: IGROV1 ovarian
COLO 205 colon = system: COLO 205 colon
U251 CNS = system: U251 CNS
NCI-H23 lung = system: NCI-H23 lung
HCT-116 colon = system: HCT-116 colon
SF-539 CNS = system: SF-539 CNS
SK-MEL-5 melanoma = system: SK-MEL-5 melanoma
NCI-H460 lung = system: NCI-H460 lung

| Structure (SMILES) | TGI (HL-60(TB) leukemia) | TGI (ACHN renal) | TGI (IGROV1 ovarian) | TGI (COLO 205 colon) | TGI (U251 CNS) | TGI (NCI-H23 lung) | TGI (HCT-116 colon) | TGI (SF-539 CNS) | TGI (SK-MEL-5 melanoma) | TGI (NCI-H460 lung) | GI50 (HL-60(TB) leukemia) | GI50 (ACHN renal) | GI50 (IGROV1 ovarian) | GI50 (COLO 205 colon) | GI50 (U251 CNS) | GI50 (NCI-H23 lung) | GI50 (HCT-116 colon) | GI50 (SF-539 CNS) | GI50 (SK-MEL-5 melanoma) | GI50 (NCI-H460 lung) |
| --- | --- | --- | --- | --- | --- | --- | --- | --- | --- | --- | --- | --- | --- | --- | --- | --- | --- | --- | --- | --- |
| CN1C/C(=C\c2ccco2)c2nc(N)nc(-c3ccco3)c2C1 | > 100 µM | > 100 µM | > 100 µM | > 100 µM | > 100 µM | > 100 µM | > 100 µM | > 100 µM | > 100 µM | > 100 µM | – | – | – | – | – | – | – | – | – | – |
| O=C1NC2(CCCCC2)C2=C1CCCCC2 | > 100 µM | > 100 µM | > 100 µM | > 100 µM | > 100 µM | > 100 µM | > 100 µM | > 100 µM | > 100 µM | > 100 µM | – | – | – | – | – | – | – | – | – | – |
| COc1cc(COC(=O)NC(Cc2cccs2)C(=O)O)c([N+](=O)[O-])cc1OC (stereo not given) | > 100 µM | > 100 µM | > 100 µM | > 100 µM | > 100 µM | > 100 µM | > 100 µM | > 100 µM | > 100 µM | > 100 µM | – | – | – | – | – | – | – | – | – | – |
| CC(C)c1nc(Cl)c(Cl)c(Cl)n1 | 5.4 µM | 2.51 µM | 19.5 µM | 11.9 µM | 12.8 µM | 22.3 µM | 14.2 µM | 25.2 µM | 30.9 µM | 48.4 µM | – | – | – | – | – | – | – | – | – | – |
| OCCn1c(-c2ccncc2)c(-c2ccc(F)cc2)c2ncccc21 | > 25 µM | > 25 µM | > 25 µM | > 25 µM | > 25 µM | > 25 µM | > 25 µM | > 25 µM | > 25 µM | > 25 µM | > 25 µM | 24.8 µM | > 25 µM | > 25 µM | > 25 µM | > 25 µM | > 25 µM | > 25 µM | > 25 µM | > 25 µM |
| CC(=O)Nc1ccc(C(=O)COc2cccc(/C=C3\CCc4ccccc4C3=O)c2)cc1 | 22.7 µM | 78.4 µM | 99.2 µM | 34.5 µM | 27.8 µM | 43.4 µM | 17.1 µM | 40.2 µM | 11 µM | 37.1 µM | 4.4 µM | 21.9 µM | 21.1 µM | 17.2 µM | 12.4 µM | 14.4 µM | 4.09 µM | 19.2 µM | 2.9 µM | 16.1 µM |
| CCCCCCCCCCCCCCCC(=O)NCC(OCC)OCC | > 100 µM | > 100 µM | > 100 µM | > 100 µM | > 100 µM | > 100 µM | > 100 µM | > 100 µM | > 100 µM | > 100 µM | – | – | – | – | – | – | – | – | – | – |
| Cc1c(C(=O)C/C(=N/NC(=O)CC#N)C(N)=O)[n+](=O)c2ccccc2n1[O-] | 69.4 µM | > 100 µM | 87.5 µM | > 100 µM | > 100 µM | > 100 µM | 94 µM | > 100 µM | > 100 µM | > 100 µM | – | – | – | – | – | – | – | – | – | – |
| CS(=O)(=O)Nc1ccc(Nc2c3ccccc3nc3cc(Cl)ccc23)cc1 | 24.6 µM | 9.57 µM | 19 µM | 15.6 µM | 13.5 µM | 18.9 µM | 13.1 µM | 13.5 µM | 2.62 µM | 11 µM | 0.843 µM | 0.343 µM | 1.62 µM | 1.51 µM | 0.828 µM | 1.67 µM | 0.84 µM | 1.18 µM | 1.13 µM | 0.0962 µM |
| C=CCCC1(CCP(=O)(c2ccccc2)c2ccccc2)OCCO1 | > 100 µM | > 100 µM | > 100 µM | > 100 µM | > 100 µM | > 100 µM | > 100 µM | > 100 µM | > 100 µM | > 100 µM | – | – | – | – | – | – | – | – | – | – |
| Nc1ccc(N)c2c1C(=O)c1cccc([N+](=O)[O-])c1C2=O | > 41.1 µM | > 100 µM | > 100 µM | > 55.4 µM | > 100 µM | 2.73 µM | > 48.2 µM | > 22.4 µM | 3.76 µM | 1.27 µM | 3.65 µM | 1.93 µM | 3.92 µM | 4.17 µM | 2.85 µM | 0.44 µM | 2.73 µM | 1.92 µM | 1.43 µM | 0.206 µM |
| CC1=C2[C@@H](c3ccccc3)C3C=CC2(C=C3C(F)(F)F)N(C(=O)NC2CCCCC2)C1=O (stereo not given in full) | 39.2 µM | > 100 µM | > 100 µM | > 100 µM | > 100 µM | > 100 µM | > 100 µM | > 100 µM | > 100 µM | > 100 µM | – | – | – | – | – | – | – | – | – | – |
| CCNc1nc(-c2ccc(Cl)c(OC)c2)c(-c2ccnc(NCCNS(=O)(=O)c3ccc(Cl)cc3)n2)s1 | 7.16 µM | > 100 µM | > 100 µM | 6.61 µM | 10.3 µM | > 100 µM | 6.25 µM | 6.63 µM | 3.23 µM | > 100 µM | 2.87 µM | 3.14 µM | 4.68 µM | 2.32 µM | 3.24 µM | 3.5 µM | 2.65 µM | 2.51 µM | 1.56 µM | 3.2 µM |
| CCOC(=O)c1c(/C=N\Nc2ccccc2)nc2ccccc2c1-c1ccccc1 | 50.1 µM | > 100 µM | > 100 µM | 53 µM | > 100 µM | > 100 µM | > 100 µM | > 100 µM | 85.6 µM | > 100 µM | – | – | – | – | – | – | – | – | – | – |
| Nc1nc(N)c(-c2ccccc2)c(C(=O)Nc2nccs2)n1 | > 100 µM | > 100 µM | > 100 µM | > 100 µM | > 100 µM | > 100 µM | > 100 µM | > 100 µM | > 100 µM | > 100 µM | – | – | – | – | – | – | – | – | – | – |
| CCC(=C(c1ccc(OCCN(CC)CC)cc1)c1ccc(OCCN(CC)CC)cc1)c1ccc(Cl)cc1 | 1.32 µM | 1.08 µM | 1.15 µM | 1.32 µM | 1.14 µM | 1.41 µM | 0.995 µM | 1.04 µM | 1.06 µM | 1.17 µM | 0.626 µM | 0.596 µM | 0.618 µM | 0.631 µM | 0.57 µM | 0.652 µM | 0.508 µM | 0.552 µM | 0.593 µM | 0.619 µM |
| COc1ccc(Cl)cc1Nc1nc(C(F)(F)F)ccc1C(=O)N/N=C/c1ccc(Cl)cc1 | 22 µM | 66.2 µM | 79.1 µM | > 100 µM | 69.3 µM | 42 µM | 19.9 µM | 27.5 µM | 23.5 µM | > 100 µM | 7.58 µM | 6.4 µM | 11 µM | 2.76 µM | 4.79 µM | 9.57 µM | 3.39 µM | 6.63 µM | 2.23 µM | 1.82 µM |
